In the supplement of paper PMC11061612:

Key:
BT-20 (Breast Carcinoma) = assay: Bliss excess, mean over the matrix (fraction); higher = more synergy
Summary of the method: (§1)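 After 24 hours at 37°C and 5% CO2 in 1536-well plates, cells in DMEM/F12 or RPMI plus 10% FBS received two-drug dose matrices for 72 hours. Viability came from CellTiter-Glo 2.0 luminescence and was scaled as inhibition, anchored at 0 by vehicle wells and at 1 by blank wells. Combination Emax is taken as the second-highest inhibition in the matrix, and Bliss excess as the observed combination effect less EA + EB − EA·EB, with EA and EB the single-agent effects.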

[1] = tested on: DG-75 (Burkitt's Lymphoma); assay: as above
Summary of the method: as §1

[2] = tested on: EBC-1 (Squamous Cell Lung Carcinoma); assay: as above
Summary of the method: as §1

[3] = tested on: EMC-BAC-2 (Non-Small Cell Lung Carcinoma); assay: as above
Summary of the method: as §1

GI-1 (Glioblastoma) = assay: as above
Summary of the method: as §1

GOTO (Neuroblastoma) = assay: as above
Summary of the method: as §1

[4] = tested on: HuP-T3 (Pancreatic Carcinoma); assay: as above
Summary of the method: as §1

[5] = tested on: KP-2 (Pancreatic Carcinoma); assay: as above
Summary of the method: as §1

[6] = tested on: KU-19-19 (Bladder Carcinoma); assay: as above
Summary of the method: as §1

NH-12 (Neuroblastoma) = assay: as above
Summary of the method: as §1

[7] = tested on: OCUM-1 (Gastric Carcinoma); assay: as above
Summary of the method: as §1

[8] = tested on: TGBC11TKB (Gastric Carcinoma); assay: as above
Summary of the method: as §1

[9] = tested on: VMRC-LCD (Lung Adenocarcinoma); assay: as above
Summary of the method: as §1

[10] = tested on: JHH-7 (Hepatocellular Carcinoma); assay: combination Emax (second highest fraction inhibited in the dose matrix, 72 h); higher = more inhibition; extreme values may be limits of the assay
Summary of the method: as §1

[11] = tested on: KU-19-19 (Bladder Carcinoma); assay: as above
Summary of the method: as §1

[12] = tested on: NCI-H2405 (Lung Adenocarcinoma); assay: as above
Summary of the method: as §1

[13] = tested on: NCI-H322M (Lung Adenocarcinoma); assay: as above
Summary of the method: as §1

[14] = tested on: OCUB-M (Breast Carcinoma); assay: as above
Summary of the method: as §1

[15] = tested on: SCC-3 (B-Cell Non-Hodgkin's Lymphoma); assay: as above
Summary of the method: as §1

[16] = tested on: SCC-9 (Oral Cavity Carcinoma); assay: as above
Summary of the method: as §1
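Throughout, for Bliss excess, mean over the matrix: after 72 h of two-drug dosing.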

SMILES	Bliss excess (BT-20 (Breast Carcinoma))	Bliss excess [1]	Bliss excess [2]	Bliss excess [3]	Bliss excess (GI-1 (Glioblastoma))	Bliss excess (GOTO (Neuroblastoma))	Bliss excess [4]	Bliss excess [5]	Bliss excess [6]	Bliss excess (NH-12 (Neuroblastoma))	Bliss excess [7]	Bliss excess [8]	Bliss excess [9]	combination Emax [10]	combination Emax [11]	combination Emax [12]	combination Emax [13]	combination Emax [14]	combination Emax [15]	combination Emax [16]
CCN(CCO)CCCOc1ccc2c(Nc3cc(CC(=O)Nc4cccc(F)c4)[nH]n3)ncnc2c1 [AZD2811] + O=C(c1cc(Cc2n[nH]c(=O)c3ccccc23)ccc1F)N1CCN(C(=O)C2CC2)CC1 [Olaparib] (first compound max 1 µM, 7x7, partner max 10 µM)	0.0358	0.0063	-0.0077	0.0112	0.0685	0.0341	-0.0195	-0.0123	0.0173	0.0109	0.0383	0.0524	-0.0949	0.218	0.381	0.234	0.182	0.805	0.488	0.19
CN(CCO)CC[C@H](CSc1ccccc1)Nc1ccc(S(=O)(=O)NC(=O)c2ccc(N3CCC([C@@H](O)c4ccccc4-c4ccc(Cl)cc4)CC3)cc2)cc1S(=O)(=O)C(F)(F)F [AZD4320] + C1CN(CCC1(C(=O)N[C@@H](CCO)C2=CC=C(C=C2)Cl)N)C3=NC=NC4=C3C=CN4 [Capivasertib] (first compound max 1 µM, 7x7, partner max 3 µM)	0.0427	-0.0093	-0.0181	-0.0761	0.0172	-0.034	-0.0678	-0.0583	-0.0394	-0.0589	-0.0087	-0.0398	-0.0521	0.391	0.174	0.224	0.0734	1	0.257	0.21
CN(CCO)CC[C@H](CSc1ccccc1)Nc1ccc(S(=O)(=O)NC(=O)c2ccc(N3CCC([C@@H](O)c4ccccc4-c4ccc(Cl)cc4)CC3)cc2)cc1S(=O)(=O)C(F)(F)F [AZD4320] + C=CCn1c(=O)c2cnc(Nc3ccc(N4CCN(C)CC4)cc3)nc2n1-c1cccc(C(C)(C)O)n1 [AZD1775] (first compound max 1 µM, partner max 1 µM)	0.0557	-0.0232	0.0187	-0.0078	0.0542	-0.0268	-0.0081	0.0889	-0.018	-0.0149	0.03	0.0443	-0.0459	0.524	0.964	0.193	0.851	0.487	0.779	0.281
CN(CCO)CC[C@H](CSc1ccccc1)Nc1ccc(S(=O)(=O)NC(=O)c2ccc(N3CCC([C@@H](O)c4ccccc4-c4ccc(Cl)cc4)CC3)cc2)cc1S(=O)(=O)C(F)(F)F [AZD4320] + CCN(CCO)CCCOc1ccc2c(Nc3cc(CC(=O)Nc4cccc(F)c4)[nH]n3)ncnc2c1 [AZD2811] (first compound max 1 µM, 7x7, partner max 1 µM)	0.0212	-0.0224	0.0178	-0.0251	0.144	0.0053	-0.0384	0.0653	0.0207	-0.049	0.0648	0.0198	-0.0741	0.538	0.498	0.137	0.0611	0.874	0.316	0.333
CN(CCO)CC[C@H](CSc1ccccc1)Nc1ccc(S(=O)(=O)NC(=O)c2ccc(N3CCC([C@@H](O)c4ccccc4-c4ccc(Cl)cc4)CC3)cc2)cc1S(=O)(=O)C(F)(F)F [AZD4320] + CN(C)CCCOc1ccc(-c2ccc3ncc4c(c3c2)n(C2CCOCC2)c(=O)n4C)cn1 [AZD0156] (first compound max 1 µM, 7x7, partner max 1 µM)	0.0323	-0.0183	-0.0075	-0.0683	0.0066	-0.0041	-0.0429	-0.0444	-0.0364	-0.0565	-0.055	-0.0242	-0.0542	0.425	0.098	0.224	0.172	0.516	0.361	0.26
CN(CCO)CC[C@H](CSc1ccccc1)Nc1ccc(S(=O)(=O)NC(=O)c2ccc(N3CCC([C@@H](O)c4ccccc4-c4ccc(Cl)cc4)CC3)cc2)cc1S(=O)(=O)C(F)(F)F [AZD4320] + C[C@@H]1COCCN1C2=NC(=NC(=C2)C3(CC3)[S@](=N)(=O)C)C4=C5C=CNC5=NC=C4 [AZD6738] (first compound max 1 µM, 7x7, partner max 10 µM)	0.0778	-0.0217	-0.015	-0.0695	-0.0203	-0.0126	-0.0695	-0.104	-0.0381	-0.0795	-0.0134	0.0135	-0.0764	0.524	0.878	0.415	0.915	0.823	0.941	0.466
